Columns and labels:
[1] = molecular target: ferredoxin NADP oxidoreductase (FNR, EC 1.18.1.2) from spinach (Spinacia oleracea, UniProt P00455)
[2] = test system: rats; details: rat, in vivo; cited from earlier work

ferredoxin NADP oxidoreductase (FNR, EC 1.18.1.2) from spinach, sequence (P00455 56-369): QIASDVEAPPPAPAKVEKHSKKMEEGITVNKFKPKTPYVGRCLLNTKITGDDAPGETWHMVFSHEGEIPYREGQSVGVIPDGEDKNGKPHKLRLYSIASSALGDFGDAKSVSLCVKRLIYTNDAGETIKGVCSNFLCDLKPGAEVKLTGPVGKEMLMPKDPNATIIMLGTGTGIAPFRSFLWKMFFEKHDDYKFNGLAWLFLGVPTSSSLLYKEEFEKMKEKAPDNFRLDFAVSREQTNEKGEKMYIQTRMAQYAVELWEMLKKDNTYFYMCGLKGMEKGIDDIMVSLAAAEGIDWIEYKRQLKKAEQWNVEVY

In the case of `O=[N+]([O-])c1ccccc1` [nitrobenzene], the “reduction by FNR under aerobic conditions” value [1] is reported as “not reduced”, the “stoichiometry of transformation by FNR” value [1] is reported as “One mole of PHA is formed for every mole of nitrobenzene” and the “reduction by FNR under nitrogen (product formed)” value ([1]; pH 8.5) is reported as “transformation of nitrobenzene to PHA by FNR”. For the same compound, the LD50 [2] was 640 mg/kg.

Reference: patent publication US5777190A (priority 1997, dated 1998)
